From publication PMC7054845 (Journal of medicinal chemistry, 2019)

System: hMMP-12
Assay: hMMP-12 inhibition assay in diluted mouse plasma
Assay type: biochemical, human
Conditions: mouse plasma versus buffer

## NC(=O)[C@H](CCC(=O)O)NC(=O)[C@H](CCC(=O)O)NC(=O)[C@H](Cc1cc(-c2ccc(-c3cccc(Cl)c3)cc2)no1)CP(=O)(O)c1ccc(Br)cc1 [RXP470.1]
  drop in affinity towards hMMP-12 in mouse plasma (factor): 470
